Assays:
bedstraw = test: Test B pre/postemergence bedstraw; type: in vivo, Galium aparine
Outline: (§1)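 Herbicidal effect was estimated by eye on a ten-point control scale after plants spent twelve to sixteen days in a greenhouse following soil or foliar treatment. Foliar sprays targeted plants at one to four leaves; all doses were formulated in a non-phytotoxic solvent with surfactant.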

blackgrass = test: Test B pre/postemergence blackgrass; type: in vivo, Alopecurus myosuroides
Outline: as §1

surinam grass = test: Test B pre/postemergence surinam grass; type: in vivo, Brachiaria decumbens
Outline: as §1

cocklebur = test: Test B pre/postemergence cocklebur; type: in vivo, Xanthium strumarium
Outline: as §1

corn = test: Test B pre/postemergence corn; type: in vivo, Zea mays
Outline: as §1

crabgrass = test: Test B pre/postemergence crabgrass; type: in vivo, Digitaria sanguinalis
Outline: as §1

giant foxtail = test: Test B pre/postemergence giant foxtail; type: in vivo, Setaria faberii
Outline: as §1

morningglory = test: Test B pre/postemergence morningglory; type: in vivo, Ipomoea hederacea
Outline: as §1

pigweed = test: Test B pre/postemergence pigweed; type: in vivo, Amaranthus retroflexus
Outline: as §1

rape = test: Test B pre/postemergence rape; type: in vivo, Brassica napus
Outline: as §1

soybean = test: Test B pre/postemergence soybean; type: in vivo, Glycine max
Outline: as §1

sugar beet = test: Test B pre/postemergence sugar beet; type: in vivo, Beta vulgaris
Outline: as §1

velvetleaf = test: Test B pre/postemergence velvetleaf; type: in vivo, Abutilon theophrasti
Outline: as §1

wheat = test: Test B pre/postemergence wheat; type: in vivo, Triticum aestivum
Outline: as §1

wild oat = test: Test B pre/postemergence wild oat; type: in vivo, Avena fatua
Outline: as §1

purple nutsedge = test: Test B pre/postemergence purple nutsedge; type: in vivo, Cyperus rotundus; details: Postemergence
Outline: as §1

rice = test: Test B flood test rice; type: in vivo, Oryza sativa
Outline: (§2)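 Each value is a visual injury score relative to controls, with 10 meaning complete control and 0 no effect. Evaluation took place twelve to sixteen days after the 2-leaf-stage plants were treated and kept in the greenhouse.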

smallflower flatsedge = test: Test B flood test smallflower flatsedge; type: in vivo, Cyperus difformis
Outline: as §2

duck salad = test: Test B flood test duck salad; type: in vivo, Heteranthera limosa
Outline: as §2

bamyardgrass = test: Test B flood test barnyardgrass; type: in vivo, Echinochloa crus-galli
Outline: as §2

[1] = Preemergence, Rate 62 g/ha, scale of 0 to 10 where 0 is no effect and 10 is complete control
[2] = Preemergence, Rate 250 g/ha, scale of 0 to 10 where 0 is no effect and 10 is complete control
[3] = Preemergence, Rate 500 g/ha, scale of 0 to 10 where 0 is no effect and 10 is complete control
[4] = Rate 62 g/ha, Postemergence, scale of 0 to 10 where 0 is no effect and 10 is complete control
[5] = Rate 125 g/ha, Postemergence, scale 0 to 10
[6] = Rate 125 g/ha, Preemergence, scale of 0 to 10 where 0 is no effect and 10 is complete control
[7] = Rate 500 g/ha, Postemergence, scale 0 to 10, 0 no effect, 10 complete control
[8] = Rate 62 g/ha, headed Pre-emergence (flood test species), scale 0 to 10 (0 no effect, 10 complete control)
[9] = Rate 125 g/ha, Pre-emergence, flood test species, scale 0 to 10 where 0 is no effect and 10 is complete control
[10] = Rate 250 g/ha, Pre-emergence, flood-test species, scale 0 to 10, 0 is no effect, 10 is complete control
[11] = Rate 500 g/ha, Pre-emergence, flood test species, scale 0 to 10 (0 no effect, 10 complete control)

SMILES: CC(C)N(C(=O)n1oc(=O)n(CCC2OCCCO2)c1=O)c1ccc(F)cc1 [Compound 255]
- Bedstraw plant response rating (bedstraw; [1]): 0
- Bedstraw plant response rating (bedstraw; [2]): 0
- Plant response rating, Bedstraw (bedstraw; [3]): 0
- Bedstraw plant response rating (bedstraw; [4]): 0
- Bedstraw plant response rating (bedstraw; [5]): 0
- Bedstraw plant response rating (bedstraw; [6]): 0
- Plant response rating (0 to 10; 0 is no effect, 10 is complete control), Bedstraw (bedstraw; Rate 250 g/ha, Postemergence): 2
- Bedstraw plant response rating (bedstraw; [7]): 8
- Blackgrass plant response rating (blackgrass; [1]): 10
- Blackgrass plant response rating (blackgrass; [2]): 10
- Plant response rating, Blackgrass (blackgrass; [3]): 10
- Blackgrass plant response rating (blackgrass; [4]): 0
- Blackgrass plant response rating (blackgrass; [5]): 2
- Blackgrass plant response rating (blackgrass; [6]): 10
- Plant response rating (0 to 10; 0 is no effect, 10 is complete control), Blackgrass (blackgrass; Rate 250 g/ha, Postemergence): 7
- Blackgrass plant response rating (blackgrass; [7]): 9
- B. signalgrass plant response rating (surinam grass; [1]): 0
- B. signalgrass plant response rating (surinam grass; [2]): 3
- Plant response rating, B. signalgrass (surinam grass; [3]): 9
- B. signalgrass plant response rating (surinam grass; [4]): 0
- B. signalgrass plant response rating (surinam grass; Rate 125 g/ha, Postemergence, scale 0 (no effect) to 10 (complete control)): 0
- B. signalgrass plant response rating (surinam grass; [6]): 2
- Plant response rating (0 to 10; 0 is no effect, 10 is complete control), B. signalgrass (surinam grass; Rate 250 g/ha, Postemergence): 2
- B. signalgrass plant response rating (surinam grass; [7]): 8
- Cocklebur plant response rating (cocklebur; [1]): 0
- Cocklebur plant response rating (cocklebur; [2]): 0
- Plant response rating, Cocklebur (cocklebur; [3]): 0
- Cocklebur plant response rating (cocklebur; [4]): 0
- Cocklebur plant response rating (cocklebur; [5]): 0
- Cocklebur plant response rating (cocklebur; [6]): 0
- Plant response rating (0 to 10; 0 is no effect, 10 is complete control), Cocklebur (cocklebur; Rate 250 g/ha, Postemergence): 0
- Cocklebur plant response rating (cocklebur; [7]): 2
- Corn plant response rating (corn; [1]): 0
- Corn plant response rating (corn; [2]): 0
- Plant response rating, Corn (corn; [3]): 8
- Corn plant response rating (corn; [4]): 0
- Corn plant response rating (corn; [5]): 0
- Corn plant response rating (corn; [6]): 0
- Plant response rating (0 to 10; 0 is no effect, 10 is complete control), Corn (corn; Rate 250 g/ha, Postemergence): 0
- Corn plant response rating (corn; [7]): 6
- Crabgrass plant response rating (crabgrass; [1]): 0
- Crabgrass plant response rating (crabgrass; [2]): 7
- Plant response rating, Crabgrass (crabgrass; [3]): 9
- Crabgrass plant response rating (crabgrass; [6]): 3
- Plant response rating (0 to 10; 0 is no effect, 10 is complete control), Crabgrass (crabgrass; Rate 250 g/ha, Postemergence): 2
- Crabgrass plant response rating (crabgrass; [7]): 3
- Giant foxtail plant response rating (giant foxtail; [1]): 8
- Giant foxtail plant response rating (giant foxtail; [2]): 10
- Plant response rating, Giant foxtail (giant foxtail; [3]): 10
- Giant foxtail plant response rating (giant foxtail; [6]): 9
- Plant response rating (0 to 10; 0 is no effect, 10 is complete control), Giant foxtail (giant foxtail; Rate 250 g/ha, Postemergence): 6
- Giant foxtail plant response rating (giant foxtail; [7]): 8
- Morningglory plant response rating (morningglory; [1]): 0
- Morningglory plant response rating (morningglory; [2]): 0
- Plant response rating, Morningglory (morningglory; [3]): 0
- Morningglory plant response rating (morningglory; [6]): 0
- Plant response rating (0 to 10; 0 is no effect, 10 is complete control), Morningglory (morningglory; Rate 250 g/ha, Postemergence): 8
- Morningglory plant response rating (morningglory; [7]): 8
- Redroot pigweed plant response rating (pigweed; [1]): 0
- Redroot pigweed plant response rating (pigweed; [2]): 5
- Plant response rating, Redroot pigweed (pigweed; [3]): 10
- Redroot pigweed plant response rating (pigweed; [6]): 2
- Plant response rating (0 to 10; 0 is no effect, 10 is complete control), Redroot pigweed (pigweed; Rate 250 g/ha, Postemergence): 2
- Redroot pigweed plant response rating (pigweed; [7]): 8
- Rape plant response rating (rape; [1]): 0
- Rape plant response rating (rape; [2]): 0
- Plant response rating, Rape (rape; [3]): 5
- Rape plant response rating (rape; [6]): 0
- Plant response rating (0 to 10; 0 is no effect, 10 is complete control), Rape (rape; Rate 250 g/ha, Postemergence): 3
- Rape plant response rating (rape; [7]): 3
- Soybean plant response rating (soybean; [1]): 0
- Soybean plant response rating (soybean; [2]): 0
- Plant response rating, Soybean (soybean; [3]): 0
- Soybean plant response rating (soybean; [6]): 0
- Soybean plant response rating (soybean; [7]): 6
- Sugarbeets plant response rating (sugar beet; [1]): 0
- Sugarbeets plant response rating (sugar beet; [2]): 6
- Plant response rating, Sugarbeets (sugar beet; [3]): 7
- Sugarbeets plant response rating (sugar beet; [6]): 3
- Sugarbeets plant response rating (sugar beet; [7]): 3
- Velvetleaf plant response rating (velvetleaf; [1]): 0
- Velvetleaf plant response rating (velvetleaf; [2]): 5
- Plant response rating, Velvetleaf (velvetleaf; [3]): 7
- Velvetleaf plant response rating (velvetleaf; [6]): 0
- Velvetleaf plant response rating (velvetleaf; [7]): 1
- Wheat plant response rating (wheat; [1]): 0
- Wheat plant response rating (wheat; [2]): 4
- Plant response rating, Wheat (wheat; [3]): 8
- Wheat plant response rating (wheat; [6]): 0
- Wheat plant response rating (wheat; [7]): 8
- Wild oats plant response rating (wild oat; [1]): 0
- Wild oats plant response rating (wild oat; [2]): 5
- Plant response rating, Wild oats (wild oat; [3]): 10
- Wild oats plant response rating (wild oat; [6]): 2
- Wild oats plant response rating (wild oat; [7]): 4
- Plant response rating (0 to 10; 0 is no effect, 10 is complete control), Nutsedge (purple nutsedge; Rate 250 g/ha): 0
- Nutsedge plant response rating (purple nutsedge; Rate 500 g/ha, scale 0 to 10, 0 no effect, 10 complete control): 6
- Rice plant response rating (rice; [8]): 0
- Rice plant response rating (rice; [9]): 0
- Rice plant response rating (rice; [10]): 0
- Rice plant response rating (rice; [11]): 0
- S. Flatsedge plant response rating (smallflower flatsedge; [8]): 0
- S. Flatsedge plant response rating (smallflower flatsedge; [9]): 0
- S. Flatsedge plant response rating (smallflower flatsedge; [10]): 0
- S. Flatsedge plant response rating (smallflower flatsedge; [11]): 0
- Ducksalad plant response rating (duck salad; [8]): 0
- Ducksalad plant response rating (duck salad; [9]): 0
- Ducksalad plant response rating (duck salad; [10]): 0
- Ducksalad plant response rating (duck salad; [11]): 0
- Barnyardgrass plant response rating (bamyardgrass; [8]): 0
- Barnyardgrass plant response rating (bamyardgrass; [9]): 0
- Barnyardgrass plant response rating (bamyardgrass; [10]): 0
- Barnyardgrass plant response rating (bamyardgrass; [11]): 0

From patent US6737383B1, “Herbicidal oxadiazolidines” (priority 1999, dated 2004)
